Molecular target: T1, SaTpx (WT-SaTpx) (Staphylococcus aureus, UniProt Q2FXL3)
T1 sequence (Q2FXL3 1-164): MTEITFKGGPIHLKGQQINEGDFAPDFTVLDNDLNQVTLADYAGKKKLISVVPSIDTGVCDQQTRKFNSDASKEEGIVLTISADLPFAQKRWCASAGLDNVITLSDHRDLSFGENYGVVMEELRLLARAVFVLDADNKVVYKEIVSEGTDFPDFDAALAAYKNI
Test: coupled SaTrx1/SaTR NADPH oxidation assay at […] nm, Michaelis-Menten fit
Format: biochemical
Settings: apparent; NADPH 0.2 mM; 20 mM Tris, 50 mM NaCl, pH 8.0

## CC(C)(OO)c1ccccc1 [cumene hydroperoxide]
  Km: 8.5 µM

From article doi:10.64898/2025.12.11.693838v1 (biorxiv, 2025)
